In patent US6825348B2, “Antiviral compounds” (Academia Sinica, priority 2002, dated 2004):

Target: PRPP synthetase (UniProt P0A717)
Assay: PRPP synthetase reaction, conversion to diphosphates and inhibition of AMP phosphorylation
Type: biochemical
Procedure: Enzymatic Conversion of Acyclic Nucleoside Phosphonates and Nucleotide 5′-Monophosphate Analog to Their Antivirally Active Diphosphates (Triphosphate Equivalents). Substrate affinities of acyclic nucleoside phosphonates 4, 20, 21, and dinucleotide analog 24 for PRPP synthetase as well as their inhibitory effect against the enzyme were evaluated according to the established procedures. See, e.g., Balzarini et al. (1991) J. Biol. Chem. 266: 8686-8689 and references cited therein. The assays were then terminated after 4 h by the addition of MeOH. HPLC on an anion-exchange Partisphere column was used to analyze the formation of […] 21pp, PMEApp, 4pp, 20pp, and 24pp.

[1] = conversion to diphosphate by PRPP synthetase

`Nc1ncnc2c1ncn2[C@@H]1O[C@H](COP(=O)(O)O)[C@@H](O)[C@H]1O` [AMP 21, adenosine 5′-monophosphate, reference compound] was tested, and the Vmax [1] was 14.270 μmol/unit/h and the “Vmax” value (phosphorylation by PRPP synthetase, no unit in text) was 14.

`Nc1ncnc2ncn(CCOCP(=O)(O)O)c12` [Compound 20, 7-[2-(Phosphonomethoxy)ethyl]adenine] was tested, and the “substrate affinity for PRPP synthetase, times less than that of PMEA 4” value was 4 times and the Vmax [1] was 0.013 μmol/unit/h.

`Nc1ncnc2c1ncn2CCOCP(=O)(O)O` [PMEA 4, 9-[2-(phosphonomethoxy)ethyl]adenine, reference compound] gave a Vmax [1] of 0.096 μmol/unit/h.
